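Protocol summary: plate cells (96-well), add compound at 5 concentrations, incubate 48 h, interpolate endpoints linearly. GI50 = concentration required for 50% inhibition of growth. At the TGI there is no net growth.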
Assays:
Assay in all cases: inhibition of tumour cell growth, NCI panel, 48 h
[1] = test system: SF-268 CNS
[2] = test system: UACC-62 melanoma
[3] = test system: LOX IMVI melanoma
[4] = test system: HS 578T breast
[5] = test system: OVCAR-8 ovarian
[6] = test system: SN12C renal
[7] = test system: EKVX NSCLC
[8] = test system: OVCAR-5 ovarian
[9] = test system: SNB-19 CNS
[10] = test system: NCI-H23 lung
[11] = test system: NCI-H460 lung
[12] = test system: U251 CNS
[13] = test system: IGROV1 ovarian
[14] = test system: MCF7 breast
[15] = test system: HCC-2998 colon
[16] = test system: T-47D breast
[17] = test system: SF-539 CNS
[18] = test system: SK-OV-3 ovarian
[19] = test system: MOLT-4 leukemia
[20] = test system: COLO 205 colon
[21] = test system: CCRF-CEM leukemia
[22] = test system: OVCAR-3 ovarian
[23] = test system: SF-295 CNS
[24] = test system: NCI-H226 lung
[25] = test system: KM12 colon
[26] = test system: A549 NSCLC
[27] = test system: 786-0 renal
[28] = test system: HT29 colon
[29] = test system: UO-31 renal
[30] = test system: RXF 393 renal
[31] = test system: BT-549 breast
[32] = test system: SW-620 colon
[33] = test system: SNB-75 CNS
[34] = test system: HL-60(TB) leukemia
[35] = test system: MALME-3M melanoma
[36] = test system: SK-MEL-28 melanoma
[37] = test system: HOP-92 NSCLC
[38] = test system: HCT-15 colon
[39] = test system: OVCAR-4 ovarian
[40] = test system: MDA-MB-435
[41] = test system: DU-145 prostate
[42] = test system: SK-MEL-5 melanoma
[43] = test system: K-562 leukemia
[44] = test system: MDA-MB-231 breast
[45] = test system: RPMI-8226 leukemia
[46] = test system: NCI-H522 lung
[47] = test system: ACHN renal
[48] = test system: A498 renal
[49] = test system: SK-MEL-2 melanoma
[50] = test system: M14 melanoma
[51] = test system: TK-10 renal
[52] = test system: SR leukemia
[53] = test system: HOP-62 NSCLC
[54] = test system: HCT-116 colon
[55] = test system: CAKI-1 renal
[56] = test system: NCI/ADR-RES ovarian
[57] = test system: PC-3 prostate

CCCCCCCCCCC/C=C\C[C@H](O)C/C=C1/C(=O)C=C[C@@H]1C/C=C\CCCC(=O)OC
GI50 [1]: 0.939 µM | TGI [1]: 3.97 µM | GI50 [2]: 0.553 µM | TGI [2]: 1.33 µM | GI50 [3]: 0.536 µM | TGI [3]: 1.05 µM | GI50 [4]: 0.986 µM | TGI [4]: 6.1 µM | GI50 [5]: 0.966 µM | TGI [5]: 4.64 µM | GI50 [6]: 0.841 µM | TGI [6]: 2.29 µM | GI50 [7]: 0.766 µM | TGI [7]: 2.04 µM | GI50 [8]: 1.7 µM | TGI [8]: 8.58 µM | GI50 [9]: 1.24 µM | TGI [9]: 4.58 µM | GI50 [10]: 0.687 µM | TGI [10]: 1.58 µM | GI50 [11]: 1.11 µM | TGI [11]: 3.91 µM | GI50 [12]: 0.581 µM | TGI [12]: 1.53 µM | GI50 [13]: 0.742 µM | TGI [13]: 2.66 µM | GI50 [14]: 0.754 µM | TGI [14]: 4.08 µM | GI50 [15]: 1.24 µM | TGI [15]: 4.01 µM | GI50 [16]: 0.796 µM | TGI [16]: 3.44 µM | GI50 [17]: 1.02 µM | TGI [17]: 3.71 µM | GI50 [18]: 5.78 µM | TGI [18]: 21.5 µM | GI50 [19]: 0.838 µM | TGI [19]: 2.71 µM | GI50 [20]: 1.21 µM | TGI [20]: 3.83 µM | GI50 [21]: 0.923 µM | TGI [21]: 5.36 µM | GI50 [22]: 0.671 µM | TGI [22]: 1.49 µM | GI50 [23]: 1.37 µM | TGI [23]: 6.74 µM | GI50 [24]: 0.732 µM | TGI [24]: 1.76 µM | GI50 [25]: 0.852 µM | TGI [25]: 2.45 µM | GI50 [26]: 5.96 µM | TGI [26]: 33.3 µM | GI50 [27]: 1.03 µM | TGI [27]: 3.98 µM | GI50 [28]: 1.03 µM | TGI [28]: 2.85 µM | GI50 [29]: 1.1 µM | TGI [29]: 4.67 µM | GI50 [30]: 0.827 µM | TGI [30]: 3.18 µM | GI50 [31]: 0.75 µM | TGI [31]: 1.8 µM | GI50 [32]: 1.09 µM | TGI [32]: 4.05 µM | GI50 [33]: 2.07 µM | TGI [33]: 6.79 µM | GI50 [34]: 0.835 µM | TGI [34]: 2.68 µM | GI50 [35]: 0.803 µM | TGI [35]: 2.41 µM | GI50 [36]: 0.84 µM | TGI [36]: 2.31 µM | GI50 [37]: 5.43 µM | TGI [37]: 11.9 µM | GI50 [38]: 0.59 µM | TGI [38]: 1.29 µM | GI50 [39]: 0.862 µM | TGI [39]: 3.68 µM | GI50 [40]: 0.71 µM | TGI [40]: 1.8 µM | GI50 [41]: 1.35 µM | TGI [41]: 5.57 µM | GI50 [42]: 0.603 µM | TGI [42]: 1.17 µM | GI50 [43]: 0.898 µM | TGI [43]: 3.2 µM | GI50 [44]: 0.895 µM | TGI [44]: 2.61 µM | GI50 [45]: 0.534 µM | TGI [45]: 1.62 µM | GI50 [46]: 0.753 µM | TGI [46]: 2.36 µM | GI50 [47]: 1.23 µM | TGI [47]: 4.9 µM | GI50 [48]: 7.68 µM | TGI [48]: 13.6 µM | GI50 [49]: 1.46 µM | TGI [49]: 5.67 µM | GI50 [50]: 1.04 µM | TGI [50]: 4.32 µM | GI50 [51]: 1.95 µM | TGI [51]: 9.78 µM | GI50 [52]: 0.72 µM | TGI [52]: 3.97 µM | GI50 [53]: 1.01 µM | TGI [53]: 3.51 µM | GI50 [54]: 0.734 µM | TGI [54]: 1.83 µM | GI50 [55]: 1.07 µM | TGI [55]: 5.62 µM | GI50 [56]: 0.925 µM | TGI [56]: 2.93 µM | GI50 [57]: 0.836 µM | TGI [57]: 2.76 µM
